Source: patent publication US20110020312A1, “METHODS FOR TREATMENT OF METABOLIC DISORDERS USING EPIMETABOLIC SHIFTERS, MULTIDIMENSIONAL INTRACELLULAR MOLECULES, OR ENVIRONMENTAL INFLUENCERS” (priority 2009, published 2011)

Experiments:
[1] = tested on: Pyruvate Kinase M2 (PKM2); test: Western blot, Pyruvate Kinase M2 levels; assay type: cell-based, human
Procedure: The samples were processed and run on a 4-12% Bis-Tris Novex NuPAGE gel as described above. The gels were run, transferred and stained essentially as described above.
The lactate dehydrogenase blots were stripped by incubating for 30 minutes with methanol, followed by two 10 minute washes with TBS-T, then 30 minutes of incubation with Stripping buffer at 50 deg C., and followed by two washes with 100 ml or more of TBS-T for 30′ each. The 2 blots were scanned in laser scanner to check for complete stripping. The blots were activated with methanol for 5 seconds, washed with water for 5 minutes, and TBST for 15 minutes. The blots were blocked for 1 hour with 5% blocking reagent in TBS-T at room temperature and then washed 3 times with TBS-T (1×-15′; 2×5′ each) and probed with the rabbit polyclonal antibody for Pyruvate Kinase M2 in 5% BSA (NOVUS BIOLOGICALS catalog #H00005315-DO1P) at 1:500 dilution overnight at 4 deg C. with shaking. After the overnight incubation with primary antibody for Pyruvate Kinase M2, the membranes were washed 3 times with TBS-T (1×-15′; 2×5′ each) and probed with the secondary antibody (antirabbit; 1:10,000 dilution) for 1 h on the orbital tilting shaker at room temperature. After 1 h of incubation with secondary antibodies, the blots were washed 3 times with TBS-T (1×-15′; 2×5′ each) and then incubated with ECF reagent for 5 minutes and then each blot scanned with 5100 Fuji Laser scanner at 25 uM resolution, 16 bit, green laser, at 400V and at 500 V.
The HASMC samples were processed and the gels were run, transferred, stained and scanned essentially as described above.
The above blots were stripped by incubating for 30 minutes with methanol, followed by two 10 minute washes with TBS-T, then 30 minutes of incubation with Stripping buffer at 50 deg C., and followed by two washes with 100 ml or more of TBS-T for 30′ each. The blots were scanned in laser scanner to check for complete stripping. The blots were activated with methanol for 5 seconds, washed with water for 5 minutes, and TBST for 15 minutes. The blots were blocked for 1 hour with 5% blocking reagent in TBS-T at room temperature and then washed 3 times with TBS-T (1×-15′; 2×5′ each) and probed with the primary antibody for PKM2, SDHB or SDHC in 5% BSA in TBS-T by incubation overnight at 4 deg C. with gentle shaking. The primary antibody for SDHC (ABNOVA H00006391-MO2; antimouse) was at 1:500 dilution. The primary antibody for SDHB was from Abcam ab4714-200; antimouse; at 1:1000 dilution. The primary antibody for Pyruvate Kinase M2 (PKM2) was from Novus Biologicals H00005315-D0IP; antirabbit; at 1:500 dilution. After incubation with primary antibodies, the membranes were washed 3 times with TBS-T (1×-15′; 2×5′ each) and probed with the secondary antibody (SDHB & C antimouse; and PKM2 antirabbit; 1:10,000 dilution) for 1 h on the orbital tilting shaker at room temperature. After 1 h of incubation, the blots were washed 3 times with TBS-T (1×-15′; 2×5′ each) and incubated with ECF reagent for 5 minutes and then each blot scanned with 5100 Fuji Laser scanner at 25 uM resolution, 16 bit, green laser, at 400V and at 500 V.

[2] = tested on: PaCa-2 pancreatic cancer cells; test: Oxygen consumption rate (OCR), SeaHorse XF analyzer; assay type: cell-based; conditions: absence and presence of stressors (FIG. 32)
Source text: (§1) Environmental influencers (e.g., MIMs or Epi-shifters) may also be identified by changes in cellular energetics. One example of the measurement of cellular energetics are the real-time measures of the consumption of molecular oxygen and/or the change in pH of the media of a cell culture. For example, the ability of a potential epi-shifter to modulate the metabolic state of a cell may be analyzed using, for example, the XF24 Analyzer (Seahorse, Inc.). This technology allows for real time detection of oxygen and pH changes in a monolayer of cells in order to evaluate the bioenergetics of a cell microenvironment. The XF24 Analyzer measures and compares the rates of oxygen consumption (OCR), which is a measure of aerobic metabolism, and extracellular acidification (ECAR), which is a measure of glycolysis, both key indicators of cellular energetics.
(§2) (SeaHorse Biosciences Inc, North Billerica, Mass.).
(§3) In contrast, cancer cells (e.g., MCF-7, PaCa-2) are inherently primed to culture at higher levels of glucose compared to normal cells due to their glycolytic phenotype for maintenance in culture.

[3] = tested on: MCF-7 breast cancer cells; test: as above; assay type: cell-based; conditions: absence and presence of stressors (FIG. 31)
Source text: as §1, §2, §3

[4] = tested on: SCC cells; test: Real-time PCR Heat Shock Protein Array; assay type: cell-based; conditions: 100 μM
Source text: The control cells were untreated cells.
Heat Shock Arrays were run for SCC cells and the data of regulated genes is summarized below in Table 13.

[5] = tested on: HASMC cells; test: Extracellular acidification rate (ECAR), SeaHorse XF analyzer; assay type: cell-based, human; conditions: hyperglycemic HASMC cells in hypoxic conditions
Source text: as §1, §2
(§4) In this experiment, the OCR and extracellular acidification rate (ECAR) in normal cells lines were obtained in the presence and absence of CoQ10 to determine baseline values. It was observed that in its native nutrient environment, the basal OCR rates in normal cells lines are different, and are usually a function of the physiological roles of the cells in the body.
In Table 52 the measured baseline ECAR values (mpH/min) in HASMC were higher compared to that of HDFa. […]

[6] = tested on: HDFa cells; test: as above; assay type: cell-based, human
Source text: as §1, §2, §4
Table 51 below describes the ECAR values (mpH/min) in HDFa cells in the presence or absence of CoQ10 under normoxic and hypoxic conditions at 5.5 mM and 22 mM glucose.

SMILES: COC1=C(OC)C(=O)C(C/C=C(\C)CC/C=C(\C)CC/C=C(\C)CC/C=C(\C)CC/C=C(\C)CC/C=C(\C)CC/C=C(\C)CC/C=C(\C)CC/C=C(\C)CCC=C(C)C)=C(C)C1=O [Q10, Coenzyme Q10]
- Pyruvate Kinase Muscle form 2 Upper Band Normalized Intensity ([1]; HASMC, 5g48-50): 811
- Pyruvate Kinase Muscle form 2 Upper Band Normalized Intensity ([1]; HASMC, 5g48-100): 611
- Pyruvate Kinase Muscle form 2 Upper Band Normalized Intensity ([1]; HASMC, 22G24-50): 477
- Pyruvate Kinase Muscle form 2 Upper Band Normalized Intensity ([1]; HASMC, 22G24-100): 701
- Pyruvate Kinase Muscle form 2 Upper Band Normalized Intensity ([1]; HASMC, 22G48-50): 595
- Pyruvate Kinase Muscle form 2 Upper Band Normalized Intensity ([1]; HASMC, 22G48-100): 496
- Pyruvate Kinase Muscle form 2 Upper Band Normalized Volume ([1]; HepG2, 5g-50, 24 h): 29269
- Pyruvate Kinase Muscle form 2 Upper Band Normalized Intensity ([1]; HepG2, 5g-50, 48 h): 303
- Pyruvate Kinase Muscle form 2 Upper Band Normalized Volume ([1]; HepG2, 5g-100, 24 h): 18307
- Pyruvate Kinase Muscle form 2 Upper Band Normalized Intensity ([1]; HepG2, 5g-100, 48 h): 354
- Pyruvate Kinase Muscle form 2 Upper Band Normalized Volume ([1]; HepG2, 22G-50, 24 h): 22294
- Pyruvate Kinase Muscle form 2 Upper Band Normalized Intensity ([1]; HepG2, 22G-50, 48 h): 562
- Pyruvate Kinase Muscle form 2 Upper Band Normalized Volume ([1]; HepG2, 22G-100, 24 h): 19560
- Pyruvate Kinase Muscle form 2 Upper Band Normalized Intensity ([1]; HepG2, 22G-100, 48 h): 601
- PKM2 expression ([1]; cancer cells tested): dose-dependent decrease
- PKM2 expression ([1]; normal cells): no major changes
- OCR values [2]: consistent reduction
- OCR values [3]: consistent reduction
- DNAJA1 gene Regulation ([4]; at 6 hours): Up regulated at 6
- DNAJB5 gene Regulation ([4]; at 6 hours): Down regulated
- DNAJB13 gene Regulation ([4]; at 6 hours): Down regulated
- DNAJC4 gene Regulation ([4]; at 6 hours): Down regulated
- DNAJC5B gene Regulation ([4]; at 6 hours): Down regulated
- DNAJC12 gene Regulation ([4]; at 6 hours): Down regulated
- HSPA8 gene Regulation ([4]; at 6 hours): Up regulated at 6
- HSPH1 gene Regulation ([4]; at 6 hours): Up regulated at 6
- CCT6B gene Regulation ([4]; at 24 hours): Down regulated
- ECAR rates [5]: downward trend
- ECAR ([6]; high glucose hypoxic conditions, to value of untreated normoxic conditions): lowering of elevated ECAR
- ECAR values ([6]; normal cells, normoxic and hypoxic, 5.5 mM and 22 mM glucose): minimal influence
